# In ChEMBL document CHEMBL1130907, “The novel cyclopropapyrroloindole(CPI) bisalkylators bearing 3,3'-(1,4-phenylene)diacryloyl group as a linker” (Bioorg Med Chem Lett, 1998):
# What was measured:
# Mus musculus = test: In vivo antitumor activity against colon 26 murine adenocarcinoma in male CDF1 mice and was expressed as 50% tumor growth inhibition.; assay type: functional
# [1] = Ratio of MTD, maximum dose with in 10% body weight loss (ug/Kg) to that of TGI50 was reported; assay type: functional
# HeLa [2] = test: In vitro cytotoxicity against HeLaS3 human uterine cervix carcinoma.; assay type: functional, cell-based
# HeLa [3] = test: In vitro cytotoxicity against HeLaS3 human uterine cervix carcinoma; assay type: functional, cell-based
# [4] = Homo sapiens, HeLa, read-out: IC50
SMILES,TGI50 (Mus musculus) [µg/kg],Ratio [1],IC50 (HeLa [2]) [ng/mL],IC50 (HeLa [3]; [4]) [ng/mL],IC50 (HeLa [3]; hela) [ng/mL]
COC(=O)c1c[nH]c2c(O)cc3c(c12)[C@H](CCl)CN3C(=O)/C=C/c1ccc(/C=C/C(=O)N2C[C@H](CCl)c3c2cc(O)c2[nH]cc(C(=O)OC)c32)cc1,0.757,10.3,0.00035,–,–
Cc1c[nH]c2c(O)cc3c(c12)[C@H](CCl)CN3C(=O)c1cc2cc(NC(=O)Nc3ccc4[nH]c(C(=O)N5C[C@@H](CCl)c6c5cc(O)c5[nH]cc(C)c65)cc4c3)ccc2[nH]1 [BIZELESIN],3.72,8.4,–,–,–
O=C(/C=C/c1ccc(/C=C/C(=O)N2C[C@H](CCl)c3c2cc(O)c2[nH]c4ccccc4c32)cc1)N1C[C@@H](CCl)c2c1cc(O)c1[nH]c3ccccc3c21,3.8,8.2,–,0.072,–
COC(=O)c1c(C(F)(F)F)[nH]c2c(O)cc3c(c12)[C@H](CCl)CN3C(=O)/C=C/c1ccc(/C=C/C(=O)N2C[C@H](CCl)c3c2cc(O)c2[nH]c(C(F)(F)F)c(C(=O)OC)c32)cc1,0.254,30.7,–,–,0.0027
Cc1c[nH]c2c(O)cc3c(c12)[C@H](CCl)CN3C(=O)/C=C/c1ccc(/C=C/C(=O)N2C[C@H](CCl)c3c2cc(O)c2[nH]cc(C)c32)cc1,1.41,5.5,–,–,0.0013
COC(=O)c1cc2c3c(cc(O)c2[nH]1)N(C(=O)/C=C/c1ccc(/C=C/C(=O)N2C[C@H](CCl)c4c2cc(O)c2[nH]c(C(=O)OC)cc42)cc1)C[C@H]3CCl,100,–,–,0.023,–
COC(=O)c1c(C)[nH]c2c(O)cc3c(c12)[C@H](CCl)CN3C(=O)/C=C/c1ccc(/C=C/C(=O)N2C[C@H](CCl)c3c2cc(O)c2[nH]c(C)c(C(=O)OC)c32)cc1,0.891,8.8,0.00046,–,–
COC(=O)c1c(C(F)(F)F)[nH]c2c(O)cc3c(c12)[C@H](CCl)CN3C(=O)c1cc2cc(-c3ccc4[nH]c(C(=O)N5C[C@@H](CCl)c6c5cc(O)c5[nH]c(C(F)(F)F)c(C(=O)OC)c65)cc4c3)ccc2[nH]1,0.3,3.3,–,–,0.0049
